Experimental data from ChEMBL document CHEMBL5252552, “Defined concatenated α6α1β3γ2 GABAA receptor constructs reveal dual action of pyrazoloquinolinone allosteric modulators” (Bioorg Med Chem, 2019).

Experiments:
[1] = target: T1, Gamma-aminobutyric acid receptor subunit alpha-6/beta-3/gamma-2 (Rattus norvegicus) (UniProt P18508+P30191+P63079); experiment: Positive allosteric modulation of rat recombinant GABAA alpha6beta3gamma2 receptor expressed in Xenopus laevis oocytes assessed as maximal current at -80 mV holding potential under less potent phase in presence of GABA EC1 to 1.5 by two-electrode voltage-clamp assay relative to control; format: cell-based; conditions: Oocyte, filed as positive allosteric modulator
[2] = target: Gamma-aminobutyric acid receptor subunit alpha-1/beta-3/gamma-2 (Rattus norvegicus, UniProt P18508+P62813+P63079); experiment: Positive allosteric modulation of rat recombinant GABAA alpha1beta3alpha1-gamma2beta3 receptor expressed in Xenopus laevis oocytes assessed as increase in GABA-induced current amplitude at -80 mV holding potential under less potent phase in presence of GABA EC1 to 1.5 by two-electrode voltage-clamp assay; format: cell-based, Oocyte
[3] = target: T2, Gamma-aminobutyric acid receptor subunit alpha-1/alpha-6/beta-3/gamma-2 (Rattus norvegicus) (UniProt P18508+P30191+P62813+P63079); experiment: Positive allosteric modulation of rat recombinant GABAA gamma2beta3alpha1-beta3alpha6 receptor expressed in Xenopus laevis oocytes assessed as maximal efficacy at -80 mV holding potential at 10 uM in presence of GABA EC1 to 1.5 by two-electrode voltage-clamp assay; format: cell-based; conditions: Oocyte, filed as positive allosteric modulator
[4] = target: T1, Gamma-aminobutyric acid receptor subunit alpha-6/beta-3/gamma-2 (Rattus norvegicus); experiment: Positive allosteric modulation of rat recombinant GABAA alpha6beta3alpha6-gamma2beta3 receptor expressed in Xenopus laevis oocytes assessed as maximal efficacy at -80 mV holding potential at 1 uM in presence of GABA EC1 to 1.5 by two-electrode voltage-clamp assay; format: cell-based; conditions: Oocyte, filed as positive allosteric modulator
[5] = target: T2, Gamma-aminobutyric acid receptor subunit alpha-1/alpha-6/beta-3/gamma-2 (Rattus norvegicus); experiment: Positive allosteric modulation of rat recombinant GABAA gamma2beta3alpha1-beta3alpha6 receptor expressed in Xenopus laevis oocytes assessed as maximal efficacy at -80 mV holding potential at 10 nM in presence of GABA EC1 to 1.5 by two-electrode voltage-clamp assay; format: cell-based; conditions: Oocyte
[6] = target: T3, Gamma-aminobutyric acid receptor subunit alpha-1/beta-3/gamma-2 (Rattus norvegicus) (UniProt P18508+P62813+P63079); experiment: Positive allosteric modulation of rat recombinant GABAA alpha1beta3gamma2 receptor expressed in Xenopus laevis oocytes assessed as maximal efficacy at -80 mV holding potential at 30 uM in presence of GABA EC1 to 1.5 by two-electrode voltage-clamp assay; format: cell-based; conditions: Oocyte, filed as positive allosteric modulator
[7] = target: T2, Gamma-aminobutyric acid receptor subunit alpha-1/alpha-6/beta-3/gamma-2 (Rattus norvegicus); experiment: Positive allosteric modulation of rat recombinant GABAA alpha6beta3alpha1-gamma2beta3 receptor expressed in Xenopus laevis oocytes assessed as maximal efficacy at -80 mV holding potential at 1 uM in presence of GABA EC1 to 1.5 by two-electrode voltage-clamp assay; format: cell-based; conditions: Oocyte, filed as positive allosteric modulator
[8] = target: T1, Gamma-aminobutyric acid receptor subunit alpha-6/beta-3/gamma-2 (Rattus norvegicus); experiment: Positive allosteric modulation of rat recombinant GABAA alpha6beta3alpha6-gamma2beta3 receptor expressed in Xenopus laevis oocytes assessed as maximal efficacy at -80 mV holding potential at 3 nM in presence of GABA EC1 to 1.5 by two-electrode voltage-clamp assay; format: cell-based; conditions: Oocyte
[9] = target: T3, Gamma-aminobutyric acid receptor subunit alpha-1/beta-3/gamma-2 (Rattus norvegicus); experiment: Positive allosteric modulation of rat recombinant GABAA alpha1beta3alpha1-gamma2beta3 receptor expressed in Xenopus laevis oocytes assessed as maximal efficacy at -80 mV holding potential at 100 nM in presence of GABA EC1 to 1.5 by two-electrode voltage-clamp assay; format: cell-based; conditions: Oocyte
[10] = target: T3, Gamma-aminobutyric acid receptor subunit alpha-1/beta-3/gamma-2 (Rattus norvegicus); experiment: Positive allosteric modulation of rat recombinant GABAA alpha1beta3gamma2 receptor expressed in Xenopus laevis oocytes assessed as maximal efficacy at -80 mV holding potential at 3 uM in presence of GABA EC1 to 1.5 by two-electrode voltage-clamp assay; format: cell-based; conditions: Oocyte, filed as positive allosteric modulator
[11] = target: T2, Gamma-aminobutyric acid receptor subunit alpha-1/alpha-6/beta-3/gamma-2 (Rattus norvegicus); experiment: Positive allosteric modulation of rat recombinant GABAA gamma2beta3alpha1-beta3alpha6 receptor expressed in Xenopus laevis oocytes assessed as maximal efficacy at -80 mV holding potential at 1 nM in presence of GABA EC1 to 1.5 by two-electrode voltage-clamp assay; format: cell-based; conditions: Oocyte
[12] = target: T2, Gamma-aminobutyric acid receptor subunit alpha-1/alpha-6/beta-3/gamma-2 (Rattus norvegicus); experiment: Positive allosteric modulation of rat recombinant GABAA alpha6beta3alpha1-gamma2beta3 receptor expressed in Xenopus laevis oocytes assessed as maximal current at -80 mV holding potential under less potent phase in presence of GABA EC1 to 1.5 by two-electrode voltage-clamp assay relative to control; format: cell-based; conditions: Oocyte, filed as positive allosteric modulator
[13] = target: T1, Gamma-aminobutyric acid receptor subunit alpha-6/beta-3/gamma-2 (Rattus norvegicus); experiment: Positive allosteric modulation of rat recombinant GABAA alpha6beta3gamma2 receptor expressed in Xenopus laevis oocytes assessed as maximal efficacy at -80 mV holding potential at 30 uM in presence of GABA EC1 to 1.5 by two-electrode voltage-clamp assay; format: cell-based; conditions: Oocyte, filed as positive allosteric modulator
[14] = target: T3, Gamma-aminobutyric acid receptor subunit alpha-1/beta-3/gamma-2 (Rattus norvegicus); experiment: Positive allosteric modulation of rat recombinant GABAA alpha1beta3alpha1-gamma2beta3 receptor expressed in Xenopus laevis oocytes assessed as maximal efficacy at -80 mV holding potential at 300 nM in presence of GABA EC1 to 1.5 by two-electrode voltage-clamp assay; format: cell-based; conditions: Oocyte
[15] = target: T3, Gamma-aminobutyric acid receptor subunit alpha-1/beta-3/gamma-2 (Rattus norvegicus); experiment: Positive allosteric modulation of rat recombinant GABAA alpha1beta3gamma2 receptor expressed in Xenopus laevis oocytes assessed as maximal efficacy at -80 mV holding potential at 30 nM in presence of GABA EC1 to 1.5 by two-electrode voltage-clamp assay; format: cell-based; conditions: Oocyte
[16] = target: T1, Gamma-aminobutyric acid receptor subunit alpha-6/beta-3/gamma-2 (Rattus norvegicus); experiment: Positive allosteric modulation of rat recombinant GABAA alpha6beta3gamma2 receptor expressed in Xenopus laevis oocytes assessed as maximal current at -80 mV holding potential under more potent phase in presence of GABA EC1 to 1.5 by two-electrode voltage-clamp assay relative to control; format: cell-based; conditions: Oocyte, filed as positive allosteric modulator
[17] = target: T2, Gamma-aminobutyric acid receptor subunit alpha-1/alpha-6/beta-3/gamma-2 (Rattus norvegicus); experiment: Positive allosteric modulation of rat recombinant GABAA gamma2beta3alpha1-beta3alpha6 receptor expressed in Xenopus laevis oocytes assessed as maximal efficacy at -80 mV holding potential at 1 uM in presence of GABA EC1 to 1.5 by two-electrode voltage-clamp assay; format: cell-based; conditions: Oocyte, filed as positive allosteric modulator
[18] = target: T2, Gamma-aminobutyric acid receptor subunit alpha-1/alpha-6/beta-3/gamma-2 (Rattus norvegicus); experiment: Positive allosteric modulation of rat recombinant GABAA gamma2beta3alpha1-beta3alpha6 receptor expressed in Xenopus laevis oocytes assessed as maximal efficacy at -80 mV holding potential at 100 nM in presence of GABA EC1 to 1.5 by two-electrode voltage-clamp assay; format: cell-based; conditions: Oocyte, filed as positive allosteric modulator
[19] = target: T1, Gamma-aminobutyric acid receptor subunit alpha-6/beta-3/gamma-2 (Rattus norvegicus); experiment: Positive allosteric modulation of rat recombinant GABAA alpha6beta3alpha6-gamma2beta3 receptor expressed in Xenopus laevis oocytes assessed as maximal current at -80 mV holding potential under more potent phase in presence of GABA EC1 to 1.5 by two-electrode voltage-clamp assay relative to control; format: cell-based; conditions: Oocyte, filed as positive allosteric modulator
[20] = target: T1, Gamma-aminobutyric acid receptor subunit alpha-6/beta-3/gamma-2 (Rattus norvegicus); experiment: Positive allosteric modulation of rat recombinant GABAA alpha6beta3gamma2 receptor expressed in Xenopus laevis oocytes assessed as maximal efficacy at -80 mV holding potential at 1 uM in presence of GABA EC1 to 1.5 by two-electrode voltage-clamp assay; format: cell-based; conditions: Oocyte, filed as positive allosteric modulator
[21] = target: T2, Gamma-aminobutyric acid receptor subunit alpha-1/alpha-6/beta-3/gamma-2 (Rattus norvegicus); experiment: Positive allosteric modulation of rat recombinant GABAA gamma2beta3alpha1-beta3alpha6 receptor expressed in Xenopus laevis oocytes assessed as maximal efficacy at -80 mV holding potential at 30 uM in presence of GABA EC1 to 1.5 by two-electrode voltage-clamp assay; format: cell-based; conditions: Oocyte, filed as positive allosteric modulator
[22] = target: Gamma-aminobutyric acid receptor subunit alpha-6/beta-3/gamma-2 (Rattus norvegicus, UniProt P18508+P30191+P63079); experiment: Positive allosteric modulation of rat recombinant GABAA alpha6beta3gamma2 receptor expressed in Xenopus laevis oocytes assessed as increase in GABA-induced current amplitude at -80 mV holding potential under more potent phase in presence of GABA EC1 to 1.5 by two-electrode voltage-clamp assay; format: cell-based, Oocyte
[23] = target: T2, Gamma-aminobutyric acid receptor subunit alpha-1/alpha-6/beta-3/gamma-2 (Rattus norvegicus); experiment: Positive allosteric modulation of rat recombinant GABAA alpha6beta3alpha1-gamma2beta3 receptor expressed in Xenopus laevis oocytes assessed as maximal efficacy at -80 mV holding potential at 10 nM in presence of GABA EC1 to 1.5 by two-electrode voltage-clamp assay; format: cell-based; conditions: Oocyte

Gamma-aminobutyric acid receptor subunit alpha-1/beta-3/gamma-2, sequence (P18508 whole entry): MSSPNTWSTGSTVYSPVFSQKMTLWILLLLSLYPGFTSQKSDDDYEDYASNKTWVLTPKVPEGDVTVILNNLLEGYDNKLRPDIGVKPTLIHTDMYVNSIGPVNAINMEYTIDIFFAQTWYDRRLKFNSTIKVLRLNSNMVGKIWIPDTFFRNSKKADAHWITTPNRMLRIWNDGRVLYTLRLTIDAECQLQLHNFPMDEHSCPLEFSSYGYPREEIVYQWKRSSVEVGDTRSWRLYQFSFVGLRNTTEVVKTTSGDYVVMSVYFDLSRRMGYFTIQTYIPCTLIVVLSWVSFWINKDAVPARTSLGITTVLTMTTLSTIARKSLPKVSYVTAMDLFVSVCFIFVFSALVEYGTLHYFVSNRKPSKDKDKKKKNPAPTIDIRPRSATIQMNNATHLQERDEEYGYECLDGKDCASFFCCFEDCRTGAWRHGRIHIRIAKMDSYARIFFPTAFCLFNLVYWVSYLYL
Gamma-aminobutyric acid receptor subunit alpha-1/beta-3/gamma-2, sequence (P62813 whole entry): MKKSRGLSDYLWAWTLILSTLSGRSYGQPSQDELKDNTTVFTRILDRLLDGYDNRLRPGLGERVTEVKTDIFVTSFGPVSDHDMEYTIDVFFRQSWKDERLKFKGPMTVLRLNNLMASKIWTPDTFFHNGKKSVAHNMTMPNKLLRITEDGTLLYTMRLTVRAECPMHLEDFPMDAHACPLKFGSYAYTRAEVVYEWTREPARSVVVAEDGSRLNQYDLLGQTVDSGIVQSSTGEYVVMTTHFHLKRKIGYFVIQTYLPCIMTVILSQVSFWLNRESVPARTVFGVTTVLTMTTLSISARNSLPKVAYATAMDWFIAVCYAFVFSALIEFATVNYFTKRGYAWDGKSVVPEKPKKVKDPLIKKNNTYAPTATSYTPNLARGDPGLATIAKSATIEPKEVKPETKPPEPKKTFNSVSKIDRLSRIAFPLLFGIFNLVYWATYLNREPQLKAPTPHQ
Gamma-aminobutyric acid receptor subunit alpha-1/beta-3/gamma-2, sequence (P63079 whole entry): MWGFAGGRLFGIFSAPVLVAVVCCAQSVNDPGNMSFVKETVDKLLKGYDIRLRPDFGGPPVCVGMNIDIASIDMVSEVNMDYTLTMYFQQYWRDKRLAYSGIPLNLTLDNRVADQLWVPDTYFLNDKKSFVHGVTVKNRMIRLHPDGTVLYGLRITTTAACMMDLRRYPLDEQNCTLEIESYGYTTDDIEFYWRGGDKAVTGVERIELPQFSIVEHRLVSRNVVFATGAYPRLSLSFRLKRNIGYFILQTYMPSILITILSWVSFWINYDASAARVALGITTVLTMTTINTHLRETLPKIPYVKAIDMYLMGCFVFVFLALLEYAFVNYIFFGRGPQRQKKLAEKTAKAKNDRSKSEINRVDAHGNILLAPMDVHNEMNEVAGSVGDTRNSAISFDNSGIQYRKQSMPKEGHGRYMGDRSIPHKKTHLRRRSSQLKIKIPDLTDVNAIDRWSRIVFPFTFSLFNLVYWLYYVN
Gamma-aminobutyric acid receptor subunit alpha-6/beta-3/gamma-2, sequence (P18508 whole entry): as the sequence (P18508 whole entry) above
Gamma-aminobutyric acid receptor subunit alpha-6/beta-3/gamma-2, sequence (P30191 whole entry): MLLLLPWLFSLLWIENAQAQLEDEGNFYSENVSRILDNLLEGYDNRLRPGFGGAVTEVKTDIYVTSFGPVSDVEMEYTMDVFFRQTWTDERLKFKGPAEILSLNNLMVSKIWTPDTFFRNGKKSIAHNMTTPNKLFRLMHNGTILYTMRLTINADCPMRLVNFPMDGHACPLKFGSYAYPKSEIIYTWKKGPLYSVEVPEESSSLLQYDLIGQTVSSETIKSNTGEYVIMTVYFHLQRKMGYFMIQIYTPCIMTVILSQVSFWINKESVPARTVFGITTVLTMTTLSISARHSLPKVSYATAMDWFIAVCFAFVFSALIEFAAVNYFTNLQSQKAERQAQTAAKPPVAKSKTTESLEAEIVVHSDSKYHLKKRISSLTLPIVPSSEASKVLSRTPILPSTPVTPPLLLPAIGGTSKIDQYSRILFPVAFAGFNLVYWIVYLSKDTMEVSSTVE
Gamma-aminobutyric acid receptor subunit alpha-6/beta-3/gamma-2, sequence (P63079 whole entry): as the sequence (P63079 whole entry) above

%max [1]: 580%
EC50 [2]: 10 µM
Efficacy [3]: 186%
Efficacy [4]: 196%
Efficacy [5]: 23%
Efficacy [6]: 109%
Efficacy [7]: 144%
Efficacy [8]: 19%
Efficacy [9]: 8%
Efficacy [10]: 54%
Efficacy [11]: 3%
%max [12]: 1060%
Efficacy [13]: 595%
Efficacy [14]: 17%
Efficacy [15]: 2%
%max [16]: 70%
Efficacy [17]: 80%
Efficacy [18]: 45%
%max [19]: 82%
Efficacy [20]: 185%
Efficacy [21]: 210%
EC50 [22]: 0.001 µM
Efficacy [23]: 2%
Compound: COc1ccc(-n2nc3c4ccc(Br)cc4[nH]cc-3c2=O)cc1
